{
  "source": "ChEMBL document CHEMBL5291721",
  "about": "“A preclinical secondary pharmacology resource illuminates target-adverse drug reaction associations of marketed drugs” (Nat Commun, 2023); further: assay procedure not described here",
  "key": {"[1]": {"biological_target": "T1, Alpha-2A adrenergic receptor (Homo sapiens, UniProt P08913)", "T1 sequence (P08913 whole entry)": "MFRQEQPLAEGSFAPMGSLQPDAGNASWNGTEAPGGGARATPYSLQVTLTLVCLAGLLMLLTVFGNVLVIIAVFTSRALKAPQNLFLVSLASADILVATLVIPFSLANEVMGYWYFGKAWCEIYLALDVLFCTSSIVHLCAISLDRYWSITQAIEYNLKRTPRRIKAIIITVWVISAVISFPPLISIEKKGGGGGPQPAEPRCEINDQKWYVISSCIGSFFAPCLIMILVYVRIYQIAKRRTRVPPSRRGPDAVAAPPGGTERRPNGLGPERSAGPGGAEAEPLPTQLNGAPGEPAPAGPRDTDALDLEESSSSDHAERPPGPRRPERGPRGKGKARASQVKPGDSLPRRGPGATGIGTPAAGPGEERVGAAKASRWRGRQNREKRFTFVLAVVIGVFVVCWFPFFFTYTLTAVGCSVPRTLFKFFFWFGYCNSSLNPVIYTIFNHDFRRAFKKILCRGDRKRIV"}, "[2]": {"biological_target": "T2, Muscarinic acetylcholine receptor M4 (Homo sapiens, UniProt P08173)", "T2 sequence (P08173 whole entry)": "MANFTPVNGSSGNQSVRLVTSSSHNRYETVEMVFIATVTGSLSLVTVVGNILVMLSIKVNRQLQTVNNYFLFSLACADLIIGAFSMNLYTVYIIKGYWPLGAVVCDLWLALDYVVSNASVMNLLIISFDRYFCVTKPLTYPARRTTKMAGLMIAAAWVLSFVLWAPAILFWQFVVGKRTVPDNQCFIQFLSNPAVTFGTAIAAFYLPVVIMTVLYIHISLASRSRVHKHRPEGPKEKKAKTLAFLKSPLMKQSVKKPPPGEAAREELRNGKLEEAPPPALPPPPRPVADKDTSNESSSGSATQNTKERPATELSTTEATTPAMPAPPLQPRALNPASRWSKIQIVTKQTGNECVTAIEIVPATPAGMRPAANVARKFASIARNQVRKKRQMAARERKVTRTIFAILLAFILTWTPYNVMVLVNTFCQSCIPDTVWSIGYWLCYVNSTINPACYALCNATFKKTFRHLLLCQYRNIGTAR"}, "[3]": {"biological_target": "D(1B) dopamine receptor (Homo sapiens, UniProt P21918)", "sequence (P21918 whole entry)": "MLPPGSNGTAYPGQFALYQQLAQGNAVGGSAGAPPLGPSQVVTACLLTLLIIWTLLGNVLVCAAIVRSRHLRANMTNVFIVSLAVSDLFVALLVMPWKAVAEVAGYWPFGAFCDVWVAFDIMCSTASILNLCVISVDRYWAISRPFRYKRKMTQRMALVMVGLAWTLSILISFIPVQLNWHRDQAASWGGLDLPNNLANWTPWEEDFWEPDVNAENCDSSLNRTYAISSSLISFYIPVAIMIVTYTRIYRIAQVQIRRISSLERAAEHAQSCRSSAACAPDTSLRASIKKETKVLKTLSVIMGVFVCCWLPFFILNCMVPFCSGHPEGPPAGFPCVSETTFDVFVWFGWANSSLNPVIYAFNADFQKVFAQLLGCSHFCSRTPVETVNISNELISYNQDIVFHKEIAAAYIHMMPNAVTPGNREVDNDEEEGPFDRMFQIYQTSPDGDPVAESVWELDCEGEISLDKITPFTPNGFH"}, "[4]": {"biological_target": "5-hydroxytryptamine receptor 5A (Homo sapiens, UniProt P47898)", "sequence (P47898 whole entry)": "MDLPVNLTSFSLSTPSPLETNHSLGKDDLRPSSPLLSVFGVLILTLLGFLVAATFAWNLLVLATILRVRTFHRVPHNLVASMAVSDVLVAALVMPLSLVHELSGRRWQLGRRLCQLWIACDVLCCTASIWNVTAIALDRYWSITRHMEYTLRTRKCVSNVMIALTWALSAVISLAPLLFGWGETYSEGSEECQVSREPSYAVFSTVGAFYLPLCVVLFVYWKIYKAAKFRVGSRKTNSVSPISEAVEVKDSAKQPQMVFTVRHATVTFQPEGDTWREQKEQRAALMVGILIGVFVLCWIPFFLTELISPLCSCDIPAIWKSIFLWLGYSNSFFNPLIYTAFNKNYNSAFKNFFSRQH"}, "[5]": {"biological_target": "Rod cGMP-specific 3',5'-cyclic phosphodiesterase subunit alpha (Homo sapiens, UniProt P16499)", "sequence (P16499 whole entry)": "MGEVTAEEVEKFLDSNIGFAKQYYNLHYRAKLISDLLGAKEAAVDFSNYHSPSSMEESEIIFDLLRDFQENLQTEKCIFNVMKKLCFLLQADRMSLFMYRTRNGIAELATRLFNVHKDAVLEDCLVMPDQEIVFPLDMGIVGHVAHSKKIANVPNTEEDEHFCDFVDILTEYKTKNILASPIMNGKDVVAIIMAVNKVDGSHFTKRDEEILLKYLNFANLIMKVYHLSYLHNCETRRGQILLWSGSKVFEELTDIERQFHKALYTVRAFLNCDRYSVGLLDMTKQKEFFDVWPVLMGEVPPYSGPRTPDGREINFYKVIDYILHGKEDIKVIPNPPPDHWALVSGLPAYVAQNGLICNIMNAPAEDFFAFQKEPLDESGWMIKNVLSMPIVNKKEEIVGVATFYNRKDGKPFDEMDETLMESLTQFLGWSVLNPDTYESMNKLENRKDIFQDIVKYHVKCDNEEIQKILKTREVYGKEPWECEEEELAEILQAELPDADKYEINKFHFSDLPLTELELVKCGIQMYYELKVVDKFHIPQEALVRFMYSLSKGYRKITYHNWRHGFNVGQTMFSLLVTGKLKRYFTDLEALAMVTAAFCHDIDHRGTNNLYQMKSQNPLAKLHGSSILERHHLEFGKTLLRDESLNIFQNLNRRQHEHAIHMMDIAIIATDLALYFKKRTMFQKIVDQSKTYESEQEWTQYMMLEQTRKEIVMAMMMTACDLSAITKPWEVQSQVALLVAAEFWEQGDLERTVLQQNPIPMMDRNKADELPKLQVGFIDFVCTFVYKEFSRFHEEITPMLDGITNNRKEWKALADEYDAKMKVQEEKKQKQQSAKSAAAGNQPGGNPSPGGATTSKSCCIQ", "assay_type": "functional"}, "[6]": {"biological_target": "T3, Substance-K receptor (Homo sapiens, UniProt P21452)", "T3 sequence (P21452 whole entry)": "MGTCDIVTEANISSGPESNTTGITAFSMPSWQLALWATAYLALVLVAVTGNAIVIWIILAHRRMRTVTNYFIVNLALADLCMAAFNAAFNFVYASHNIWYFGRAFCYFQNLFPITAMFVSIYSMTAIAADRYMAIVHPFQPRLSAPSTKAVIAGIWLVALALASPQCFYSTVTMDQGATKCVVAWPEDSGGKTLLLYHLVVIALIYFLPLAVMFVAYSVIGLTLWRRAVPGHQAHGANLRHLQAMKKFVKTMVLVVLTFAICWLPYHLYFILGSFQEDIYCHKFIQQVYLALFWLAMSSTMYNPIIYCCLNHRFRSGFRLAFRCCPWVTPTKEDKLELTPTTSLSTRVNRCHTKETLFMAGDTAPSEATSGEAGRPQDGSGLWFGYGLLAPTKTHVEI"}, "[7]": {"biological_target": "T4, Alpha-1A adrenergic receptor (Homo sapiens, UniProt P35348)", "T4 sequence (P35348 whole entry)": "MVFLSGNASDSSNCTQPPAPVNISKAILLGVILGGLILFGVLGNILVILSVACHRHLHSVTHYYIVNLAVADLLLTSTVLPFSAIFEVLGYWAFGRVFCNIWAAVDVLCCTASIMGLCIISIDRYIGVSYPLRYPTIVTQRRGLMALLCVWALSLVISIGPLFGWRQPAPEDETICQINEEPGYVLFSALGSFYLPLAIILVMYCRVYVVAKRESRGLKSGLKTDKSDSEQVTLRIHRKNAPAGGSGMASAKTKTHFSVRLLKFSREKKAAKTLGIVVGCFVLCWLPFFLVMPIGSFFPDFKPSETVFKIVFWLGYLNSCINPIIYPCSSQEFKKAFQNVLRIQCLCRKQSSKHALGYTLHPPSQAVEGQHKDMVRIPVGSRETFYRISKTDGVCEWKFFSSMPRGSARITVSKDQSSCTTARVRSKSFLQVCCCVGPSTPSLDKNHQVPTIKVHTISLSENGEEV"}, "[8]": {"biological_target": "D(1A) dopamine receptor (Homo sapiens, UniProt P21728)", "sequence (P21728 whole entry)": "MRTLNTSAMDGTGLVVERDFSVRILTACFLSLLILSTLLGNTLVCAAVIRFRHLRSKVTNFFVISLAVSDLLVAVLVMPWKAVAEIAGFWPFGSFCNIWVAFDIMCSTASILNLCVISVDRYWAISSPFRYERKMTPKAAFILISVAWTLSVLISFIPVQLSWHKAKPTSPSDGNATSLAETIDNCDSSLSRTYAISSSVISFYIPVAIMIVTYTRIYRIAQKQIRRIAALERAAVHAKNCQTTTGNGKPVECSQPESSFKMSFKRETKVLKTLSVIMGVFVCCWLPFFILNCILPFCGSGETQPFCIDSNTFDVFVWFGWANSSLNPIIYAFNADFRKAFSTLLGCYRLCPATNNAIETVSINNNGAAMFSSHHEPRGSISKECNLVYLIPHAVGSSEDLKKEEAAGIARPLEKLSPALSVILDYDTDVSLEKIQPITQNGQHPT"}, "[9]": {"biological_target": "T5, Prostaglandin G/H synthase 1 (Rattus norvegicus, UniProt Q63921)", "T5 sequence (Q63921 whole entry)": "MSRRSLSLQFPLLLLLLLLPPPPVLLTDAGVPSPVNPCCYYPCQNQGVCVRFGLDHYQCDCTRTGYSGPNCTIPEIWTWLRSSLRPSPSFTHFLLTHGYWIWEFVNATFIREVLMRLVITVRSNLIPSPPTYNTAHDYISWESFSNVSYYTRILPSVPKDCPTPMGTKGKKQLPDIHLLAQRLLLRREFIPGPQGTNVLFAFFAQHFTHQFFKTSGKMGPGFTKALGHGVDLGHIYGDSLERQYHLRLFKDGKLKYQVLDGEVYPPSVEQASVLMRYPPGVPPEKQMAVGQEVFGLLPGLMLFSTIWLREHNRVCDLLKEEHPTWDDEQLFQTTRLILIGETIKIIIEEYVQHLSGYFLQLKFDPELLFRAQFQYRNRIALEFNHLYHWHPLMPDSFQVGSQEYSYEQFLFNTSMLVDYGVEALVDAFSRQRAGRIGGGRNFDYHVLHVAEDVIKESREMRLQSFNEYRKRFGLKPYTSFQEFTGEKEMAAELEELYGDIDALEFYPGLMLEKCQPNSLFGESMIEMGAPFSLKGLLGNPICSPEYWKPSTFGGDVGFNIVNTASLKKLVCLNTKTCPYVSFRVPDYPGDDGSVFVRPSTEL", "assay_type": "functional"}, "[10]": {"biological_target": "Beta-1 adrenergic receptor (Homo sapiens, UniProt P08588)", "sequence (P08588 whole entry)": "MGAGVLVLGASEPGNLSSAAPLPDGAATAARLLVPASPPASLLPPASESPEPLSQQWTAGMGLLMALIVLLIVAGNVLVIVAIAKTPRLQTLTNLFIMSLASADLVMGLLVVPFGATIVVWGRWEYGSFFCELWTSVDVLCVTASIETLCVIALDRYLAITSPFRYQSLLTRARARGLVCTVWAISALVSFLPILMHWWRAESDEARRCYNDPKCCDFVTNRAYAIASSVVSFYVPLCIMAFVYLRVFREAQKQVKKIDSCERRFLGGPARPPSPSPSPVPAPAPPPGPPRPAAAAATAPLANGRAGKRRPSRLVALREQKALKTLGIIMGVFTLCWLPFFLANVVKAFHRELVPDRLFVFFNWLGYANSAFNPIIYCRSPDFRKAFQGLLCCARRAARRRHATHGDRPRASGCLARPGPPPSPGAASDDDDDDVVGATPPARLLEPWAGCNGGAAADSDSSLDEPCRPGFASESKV", "assay_type": "functional, cell-based"}},
  "data": [
    {"smiles": "C[C@H](Cc1cc2c(c(C(N)=O)c1)N(CCCO)CC2)NCCOc1ccccc1OCC(F)(F)F", "note": "[SILODOSIN]", "values": [
      {"measurement": "AC50", "setting": "[1]", "result": 6.2, "unit": "µM"}
    ]},
    {"smiles": "OC1(c2ccc(Cl)cc2)c2ccccc2C2=NCCN21", "note": "(stereo not given) [MAZINDOL]", "values": [
      {"measurement": "AC50", "setting": "[2]", "result": "> 10", "unit": "µM"},
      {"measurement": "AC50", "setting": "[3]", "result": "> 10", "unit": "µM"},
      {"measurement": "AC50", "setting": "[4]", "result": "> 10", "unit": "µM"},
      {"measurement": "AC50", "setting": "[5]", "result": "> 10", "unit": "µM"},
      {"measurement": "AC50", "setting": "[6]", "result": "> 10", "unit": "µM"}
    ]},
    {"smiles": "O=[N+]([O-])c1ccc(O)c2ncccc12", "note": "[NITROXOLINE]", "values": [
      {"measurement": "AC50", "setting": "[7]", "result": "> 30", "unit": "µM"},
      {"measurement": "AC50", "setting": "[8]", "result": "> 30", "unit": "µM"}
    ]},
    {"smiles": "CC(C)COCC(CN(Cc1ccccc1)c1ccccc1)N1CCCC1", "note": "(stereo not given) [BEPRIDIL]", "values": [
      {"measurement": "AC50", "setting": "[9]", "result": "> 30", "unit": "µM"}
    ]},
    {"smiles": "CN1CCN(C2=Nc3ccccc3Oc3ccc(Cl)cc32)CC1", "note": "[LOXAPINE]", "values": [
      {"measurement": "AC50", "setting": "[2]", "result": 3.73, "unit": "µM"},
      {"measurement": "AC50", "setting": "[3]", "result": 0.248, "unit": "µM"},
      {"measurement": "AC50", "setting": "[4]", "result": 1.04, "unit": "µM"},
      {"measurement": "AC50", "setting": "[5]", "result": "> 10", "unit": "µM"},
      {"measurement": "AC50", "setting": "[6]", "result": "> 10", "unit": "µM"}
    ]},
    {"smiles": "CC(C(=O)O)c1ccc(CC2CCCC2=O)cc1", "note": "(stereo not given) [LOXOPROFEN]", "values": [
      {"measurement": "AC50", "setting": "[10]", "result": "> 30", "unit": "µM"}
    ]},
    {"smiles": "C=C1CC[C@H](O)C/C1=C/C=C1\\CCC[C@]2(C)[C@@H]([C@H](C)/C=C/[C@H](C)C(C)C)CC[C@@H]12", "note": "[ERGOCALCIFEROL]", "values": [
      {"measurement": "AC50", "setting": "[7]", "result": 24.7, "unit": "µM"},
      {"measurement": "AC50", "setting": "[8]", "result": "> 30", "unit": "µM"}
    ]},
    {"smiles": "Cc1cc(C(C)(C)C)cc(C)c1CC1=NCCN1", "note": "[XYLOMETAZOLINE]", "values": [
      {"measurement": "AC50", "setting": "[10]", "result": "> 30", "unit": "µM"},
      {"measurement": "AC50", "setting": "[1]", "result": 0.005, "unit": "µM"}
    ]},
    {"smiles": "Clc1ccc(C(Cn2ccnc2)OCc2ccsc2Cl)c(Cl)c1", "note": "(stereo not given) [TIOCONAZOLE]", "values": [
      {"measurement": "AC50", "setting": "[9]", "result": 14, "unit": "µM"}
    ]}
  ]
}
